± gives the expanded uncertainty stated by the source.

For this data set the following is noted: Crystal; visual observation.
Take `Cc1cc(C)cc(O)c1` [3,5-dimethylphenol]: the Normal melting temperature stood at 63.77 ± 0.39 °C.

Consider `Oc1ccccc1` [phenol], for which the Normal melting temperature stood at 41.70 ± 0.39 °C.

`CN1CCCC1=O` [N-methylpyrrolidone]: the Normal melting temperature was -23.47 ± 0.39 °C.

The values are drawn from the NIST ThermoML archive (doi:10.1016/j.fluid.2005.03.027).
